According to patent publication US6989263B1, “Method for identifying and using compounds that inactivate HIV-1 and other retroviruses by attacking highly conserved zinc fingers in the viral nucleocapsid protein” (The United States of America as represented by the …, priority 1994, dated 2006):
“Also recorded” adds a separate entry of the source. Read-outs that look alike come from different tables or passages of the source.

Key:
p7NC = biological target: T1, p7NC (Human immunodeficiency virus type 1 group M subtype B, UniProt P05888); assay: HPLC analysis of reaction products of purified p7NC with reagent; assay type: biochemical, HIV-1; design: key to Protein (HPLC): reaction products / Protein (HPLC): reaction rate: formation of non-native, intra-protein disulfide links (designated “Disulfides”); some of the reagents form adducts with the cysteine residues as well (designated “Adducts”); slow: “Slow” reactions are those in which greater than 10% of the p7NC protein remained in its native form after the 10 minute incubation with reagent; very slow: “Very slow” reactions are those in which greater than 50% of the p7NC protein remained in its native form after the 10 minute incubation with reagent; fast: “Fast” reactions result in complete transformation of the p7NC protein to non-native conformations during the 10 minute incubation period; settings: for Protein (HPLC): reaction products: 63 μM p7NC, 6 reagent : 1 protein, 10 minutes
T1 construct: The NC protein of HIV-1 (MN) p7NC was expressed in E. coli; made in house; host or cells: E. coli (vector pMAL-c)
Description: Highly purified retroviral NC proteins can be produced by expression from vectors generated through recombinant DNA technology. These proteins when reconstituted with zinc (see, Summers, et al., Protein Science 1:563–567 (1992) for methods), provide the source of the NC proteins containing the zinc fingers that are the targets for attack by the compounds of this invention. When the zinc fingers in NC proteins react with identified compounds, the reaction produces a covalent change in the NC protein, and the modified protein can be separated from the unreacted protein by, for example, reversed phase HPLC.
Samples of p7NC and apo-p7 were reacted with varying amounts of cupric chloride and resulting products separated by HPLC. The reactions were carried out using 44.3 μM protein (p7NC or apo-p7) in 0.1 M Tris-HCl, pH 7.4, for 6 minutes at room temperature with varying concentrations of CuCl2 to achieve the indicated ratios of reactants, in a final volume of 0.7 ml. Chromatography was carried out on the resulting products at pH 2 (0.05% trifluoroacetic acid) on μBondapak™ C-18 (3.9×300 mm) at 1.0 ml/minute using an acetonitrile gradient (0–17%, 20 ml; 17–20%, 60 ml; 20–60%, 10 ml). Elution positions of unreacted protein (p7NC or apo-p7) are indicated as apo-p7.
A two-fold excess of NOBA was reacted with p7NC, and the products were separated by HPLC (FIG. 10) as described above for Cu^+2 and p7NC. Elution positions for the reactants (NOBA and unreacted p7NC) and products, reacted p7NC, NOBA, HABA and AzoxyBA are indicated and an elution profile is included in FIG. 10. NOBA and AzoxyBA were supplied by Octamer, Inc. (Mill Valley, Calif.) and used as HPLC standards.
The disulfide reagent of choice (each available from the Aldrich Chemical Company (Milwaukee, Wis.)) was incubated for 10 minutes with purified p7NC protein (63 μM) at a ratio of 6 molecules of reagent to 1 molecule of NC protein (there are 6 cysteine thiols per NC protein). The formation of non-native protein conformations was monitored by HPLC as described above. […] Generally, the inactivation proceeds by formation of non-native, intra-protein disulfide links (designated “Disulfides”), but some of the reagents form adducts with the cysteine residues as well (designated “Adducts”). “Slow” reactions are those in which greater than 10% of the p7NC protein remained in its native form after the 10 minute incubation with reagent. “Very slow” reactions are those in which greater than 50% of the p7NC protein remained in its native form after the 10 minute incubation with reagent. “Fast” reactions result in complete transformation of the p7NC protein to non-native conformations during the 10 minute incubation period.

HIV-1 [1] = assay: microbe, parasite or virus in culture; settings: Human immunodeficiency virus 1, read-out: TCID (Virus): concentration of reagent required to inactivate half of a standardized number of HIV-1 virus particles
Description: (§1) Concomitantly, the drug treated virions are tested for activity. The virions are suspended in media (rather than solubilized) and added to target cells. The cultures are then examined to determine whether the virions are still active.

[2] = biological target: T2, HIV NC protein in intact virus (Human immunodeficiency virus type 1 group M subtype B, UniProt P05888); assay: Cross-linking of NC protein in intact HIV (non-reducing gel-mobility shift, western blot); assay type: biochemical, HIV-1; settings: for X-link T-½ (min), HIV NC protein (top number): intact HIV generally 12.5 μM, reagent generally 25 μM
T2 construct: endogenous in cells; host or cells: intact HIV virions
Description: Purified concentrated retrovirus and antisera against the purified NC protein of the virus can be used to test the ability of a specific compound to penetrate the virus and react with the NC protein by forming disulfide complexes in the core of the virus. The compound is mixed with the whole retrovirus under reaction conditions appropriate for the compound. The virus is then removed from the reagent by centrifugation and disrupted in, e.g, standard SDS-PAGE sample buffer with (reduced) and without (non-reduced) 2-mercaptoethanol. The viral proteins are then separated by standard SDS-PAGE and the sample examined for the presence or absence of the monomeric NC protein in the non-reduced sample. Depending upon the virus used in the experiment and the conditions of electrophoresis, the NC protein can be visualized by protein staining methods, or by immuno-blot (e.g., western) methods. Compounds which react with the NC protein by attacking the zinc finger complexes and forming disulfide cross-linked products (i.e., which generate multimers in the mobility shift assay) inactivate the virus. Thus, compounds of interest (i.e., those which cause cross-linking) reduced the amount of monomeric NC protein detected.
In order to determine whether HIV-1MN was inactivated by NOBA, the virus was incubated with varying concentrations of NOBA (3.0, 0.3, 0.03 and 0 mM) as in Table 1. The reaction products were pelleted by centrifugation, and separated by SDS-PAGE under reducing (2% 2-mercaptoethanol, panel A), or non-reducing conditions (panel B). p7NC was visualized by immunoblot analysis using monospecific rabbit antisera to the purified NC proteins as per L. E. Henderson et al., J. Virol. 66:1856 (1992).
Disulfide reagents were further tested for their ability to disrupt NC structure in the virus, based on their ability to cause inter-NC cysteine disulfide bonds (i.e., cross-linking) in the intact virus. The formation of inter-NC cysteine disulfides creates NC multimers, which migrate through a non-reducing gel at a different rate than NC monomers, as described above. Intact HIV virus (generally 12.5 μM) was exposed to the specified reagent (generally 25 μM) for varying lengths of time and electrophoresed through a non-reducing SDS-polyacrylamide gel. HIV NC monomers and multimers were visualized by western blot analysis as described above in Example 3. The approximate time required to cross-link one-half of the NC proteins in the virus at the specified reaction conditions was then determined. […] The top number in the cells of the X-link column in Table 2 refers to the approximate time in minutes required for one-half of the HIV NC proteins to become cross-linked.

[3] = biological target: T3, p11 Nucleocapsid Protein (p11NC) (Equine infectious anemia virus, UniProt P69732); assay: Cross-linking of p11NC in intact EIAV particles (gel-mobility shift); assay type: biochemical; settings: intact EIAV (50 μM), 4× the HIV assay concentrations
T3 construct: a variety of disulfide reagents cross-link the p11NC protein in intact viral particles; endogenous in cells; host or cells: intact EIAV particles
Description: Essentially the same strategy was employed to analyze the ability of the various disulfide reagents to cross-link the p11 Nucleocapsid Protein (p11NC) in intact Equine Infectious Anemia Virus (EIAV) particles. The advantages of working with EIAV include the fact that it is not a human pathogen, and that the p11NC protein can be visualized by simple coomassie-blue staining after performing the gel-mobility shift assay (rather than by western blotting as for HIV) described above. The reaction conditions were essentially the same for the EIAV assays as for the HIV assays described above, except that the concentration of virus and disulfide reagent was 4× the concentrations used in the HIV assay above. The second number in each cell in the X-link column in Table 2 represents the time required to cross-link one-half of the p11NC protein in the intact viral particles. […] The bottom number in each cell of the X-link column, unless otherwise indicated, represents the concentration of EIAV used in the assay. Blank cells throughout Table 2 indicate that the compound has yet to be tested for the specified property.

[4] = cited from earlier work
[5] = tested on: SSFV (spleen focus forming virus); assay: Survival of mice infected with SSFV; assay type: in vivo; settings: oral doses, versus infected untreated mice
Description: Mice susceptible to the retrovirus SSFV (spleen focus forming virus) when injected with the virus die within 35–40 days as a result of virally-mediated transformation of cells of the spleen.

HIV-1 [6] = settings: PCR and viral inactivation assays
Description: as §1

T3 sequence (P69732 360-435): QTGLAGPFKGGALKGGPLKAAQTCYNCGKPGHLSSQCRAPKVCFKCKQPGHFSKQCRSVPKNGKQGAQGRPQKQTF

| SMILES | Protein (HPLC): reaction products (p7NC) | IC50 (HIV-1 [1]) | cross-linking of the HIV-1 NC protein in intact virus (gel-mobility shift), in words [2] | X-link T-½ (min), HIV NC protein (top number) [2] | X-link T-½ (min), EIAV p11NC (second number) [3] | Toxicity (LD-50, mouse) ([4]; oral) | reaction with purified p7NC (HPLC), in words (p7NC) | survival after SSFV infection [5] | inactivation of HIV-1 virus / infectivity, in words (HIV-1 [6]) | inactivation of HIV-1 virus / infectivity, in words (HIV-1 [6]; listed as Tetraethylthiuram disulfide) | Toxicity (LD-50, mouse) ([4]; IP) |
| --- | --- | --- | --- | --- | --- | --- | --- | --- | --- | --- | --- |
| CN(C)c1ccc(SSc2ccc(N(C)C)cc2)cc1 [4-(dimethylamino)phenyl disulfide] | (negative) | 17.5 µM | – | – | – | – | – | – | – | – | – |
| O=C(SSC(=O)c1ccccc1)c1ccccc1 [Benzoyl Disulfide] | Disulfides; also recorded: Adducts | 68 µM | – | – | – | – | – | – | – | – | – |
| S=C(SSC(=S)N1CCCCC1)N1CCCCC1 [Dicyclopentamethylenethiuram Disulfide] | Disulfides | 4 µM | caused a cross-linking of the HIV-1 NC protein | <<15 min | ~10 min | 2870 mg/kg | – | – | – | – | – |
| CCN(CC)C(=S)SSC(=S)N(CC)CC [Tetraethylthiuram Disulfide, reference compound] | Disulfides | 66 µM | – | ~15 min | ~15 min | 1980 mg/kg | reacts with p7NC to form oxidized p7 (disulfides) | survived SSFV infection significantly longer | inactivates the virus | inactivate HIV-1 virus | 75 mg/kg |
